Measured values taken from PubChem BioAssay AID2060599 (Molecular Pharmacology Branch, DTP, NCI, 2025).
Several values for one entry are separate records, joined by “and”; a condition that tells them apart may be missing. Identical values can stand only once.

System: 817829-284-R-J1-PDC complex spheroids, viability
Experiment: Anticancer human tumor 817829-284-R-J1-PDC patient-derived colon adenocarcinoma cell line growth inhibition [CLK]
Conditions: for viability, T/C: stronger effect = lower value
How it was run: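 Multi-cell-type spheroids combined patient-derived tumor cells with HUVEC endothelial cells and human mesenchymal stem cells. Paired agents were dosed in half-log steps down from about clinical Cmax, or from 10 microM where Cmax was unknown.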

[1] = curve of first compound, second compound 0.0316 µM
[2] = curve of first compound, second compound 0.1 µM
[3] = curve of first compound, second compound 0.316 µM
[4] = curve of first compound, second compound 1 µM
[5] = curve of first compound, second compound 3.16 µM
[6] = curve of first compound, second compound 10 µM
[7] = second compound 0.0316 µM, first compound 0.0316 µM
[8] = second compound 0.0316 µM, first compound 0.1 µM
[9] = second compound 0.0316 µM, first compound 0.316 µM
[10] = second compound 0.0316 µM, first compound 1 µM
[11] = second compound 0.1 µM, first compound 0.0316 µM
[12] = second compound 0.1 µM, first compound 0.1 µM
[13] = second compound 0.1 µM, first compound 0.316 µM
[14] = second compound 0.1 µM, first compound 1 µM
[15] = second compound 0.316 µM, first compound 0.0316 µM
[16] = second compound 0.316 µM, first compound 0.1 µM
[17] = second compound 0.316 µM, first compound 0.316 µM
[18] = second compound 0.316 µM, first compound 1 µM
[19] = second compound 1 µM, first compound 0.0316 µM
[20] = second compound 1 µM, first compound 0.1 µM
[21] = second compound 1 µM, first compound 0.316 µM
[22] = second compound 1 µM, first compound 1 µM
[23] = second compound 3.16 µM, first compound 0.0316 µM
[24] = second compound 3.16 µM, first compound 0.1 µM
[25] = second compound 3.16 µM, first compound 0.316 µM
[26] = second compound 3.16 µM, first compound 1 µM
[27] = second compound 10 µM, first compound 0.0316 µM
[28] = second compound 10 µM, first compound 0.1 µM
[29] = second compound 10 µM, first compound 0.316 µM
[30] = second compound 10 µM, first compound 1 µM
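Note: spheroids exposed to the agents for seven days before readout.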

Nc1ccn(C2OC(CO)C(O)C2(F)F)c(=O)n1 (configuration not stated) + CN1CCN(c2cc(C(=O)Nc3cc4cc(-c5cnn(C)c5)ccc4cn3)ccn2)CC1
IC50 [1]: < 31.6 nM | IC50 [2]: < 31.6 nM | IC50 [3]: < 31.6 nM | IC50 [4]: < 31.6 nM | IC50 [5]: < 31.6 nM | IC50 [6]: < 31.6 nM | viability, T/C [7]: 4.65% | viability, T/C [8]: 4.62% | viability, T/C [9]: 3.63% | viability, T/C [10]: 3.9% | viability, T/C (second compound 0.0316 µM, first compound 3.16 µM): 3.03% | viability, T/C (second compound 0.0316 µM, first compound 10 µM): 1.88% | viability, T/C [11]: 3.65% | viability, T/C [12]: 3.83% | viability, T/C [13]: 3.7% | viability, T/C [14]: 3.47% | viability, T/C (second compound 0.1 µM, first compound 3.16 µM): 3.1% | viability, T/C (second compound 0.1 µM, first compound 10 µM): 1.72% | viability, T/C [15]: 1.66% | viability, T/C [16]: 1.94% | viability, T/C [17]: 1.74% | viability, T/C [18]: 1.53% | viability, T/C (second compound 0.316 µM, first compound 3.16 µM): 1.54% | viability, T/C (second compound 0.316 µM, first compound 10 µM): 0.9% | viability, T/C [19]: 0.14% | viability, T/C [20]: 0.08% | viability, T/C [21]: 0.09% | viability, T/C [22]: 0.07% | viability, T/C (second compound 1 µM, first compound 3.16 µM): 0.14% | viability, T/C (second compound 1 µM, first compound 10 µM): 0.07% | viability, T/C [23]: 0.11% | viability, T/C [24]: 0.14% | viability, T/C [25]: 0.17% | viability, T/C [26]: 0.09% | viability, T/C (second compound 3.16 µM, first compound 3.16 µM): 0.11% | viability, T/C (second compound 3.16 µM, first compound 10 µM): 0.09% | viability, T/C [27]: 0.05% | viability, T/C [28]: 0.09% | viability, T/C [29]: 0.09% | viability, T/C [30]: 0.09% | viability, T/C (second compound 10 µM, first compound 3.16 µM): 0.11% | viability, T/C (second compound 10 µM, first compound 10 µM): 0.11%

CC(=O)O[C@H]1C(=O)[C@@]2(C)[C@H]([C@H](OC(=O)c3ccccc3)[C@]3(O)C[C@H](OC(=O)[C@H](O)[C@@H](NC(=O)c4ccccc4)c4ccccc4)C(C)=C1C3(C)C)[C@]1(OC(C)=O)CO[C@@H]1C[C@@H]2O
viability, T/C (compound 0.0316 µM): 5.82% and 6.97% | viability, T/C (compound 0.1 µM): 4.87% and 7.28% | viability, T/C (compound 0.316 µM): 5.22% and 6.91% | viability, T/C (compound 1 µM): 5.4% and 7.87% | viability, T/C (compound 3.16 µM): 6.88% and 8.37% | viability, T/C (compound 10 µM): 6.36% and 7.7% | IC50 (curve of compound): < 31.6 nM

C=CC(=O)N1CCN(c2nc(=O)n(-c3c(C)ccnc3C(C)C)c3nc(-c4c(O)cccc4F)c(F)cc23)C(C)C1 (configuration not stated)
viability, T/C (compound 0.0316 µM): 101% and 136% | viability, T/C (compound 0.1 µM): 97.2% and 101% | viability, T/C (compound 0.316 µM): 101% and 92.9% | viability, T/C (compound 1 µM): 100% | viability, T/C (compound 3.16 µM): 101% | viability, T/C (compound 10 µM): 57% and 87.9% | IC50 (curve of compound): > 10000 nM

CCc1c2c(nc3ccc(O)cc13)-c1cc3c(c(=O)n1C2)COC(=O)[C@]3(O)CC + CN1CCN(c2cc(C(=O)Nc3cc4cc(-c5cnn(C)c5)ccc4cn3)ccn2)CC1
IC50 [1]: < 3.16 nM | IC50 [2]: < 3.16 nM | IC50 [3]: < 3.16 nM | IC50 [4]: < 3.16 nM | IC50 [5]: < 3.16 nM | IC50 [6]: < 3.16 nM | viability, T/C (second compound 0.0316 µM, first compound 0.00316 µM): 18.9% | viability, T/C (second compound 0.0316 µM, first compound 0.01 µM): 14.8% | viability, T/C [7]: 12.5% | viability, T/C [8]: 6.83% | viability, T/C [9]: 4.71% | viability, T/C [10]: 2.93% | viability, T/C (second compound 0.1 µM, first compound 0.00316 µM): 14.1% | viability, T/C (second compound 0.1 µM, first compound 0.01 µM): 11.4% | viability, T/C [11]: 7.3% | viability, T/C [12]: 4.95% | viability, T/C [13]: 3.31% | viability, T/C [14]: 1.84% | viability, T/C (second compound 0.316 µM, first compound 0.00316 µM): 2.41% | viability, T/C (second compound 0.316 µM, first compound 0.01 µM): 2.17% | viability, T/C [15]: 1.78% | viability, T/C [16]: 0.79% | viability, T/C [17]: 0.28% | viability, T/C [18]: 0.34% | viability, T/C (second compound 1 µM, first compound 0.00316 µM): 0.09% | viability, T/C (second compound 1 µM, first compound 0.01 µM): 0.12% | viability, T/C [19]: 0.2% | viability, T/C [20]: 0.27% | viability, T/C [21]: 0.27% | viability, T/C [22]: 0.41% | viability, T/C (second compound 3.16 µM, first compound 0.00316 µM): 0.14% | viability, T/C (second compound 3.16 µM, first compound 0.01 µM): 0.18% | viability, T/C [23]: 0.19% | viability, T/C [24]: 0.21% | viability, T/C [25]: 0.31% | viability, T/C [26]: 0.67% | viability, T/C (second compound 10 µM, first compound 0.00316 µM): 0.05% | viability, T/C (second compound 10 µM, first compound 0.01 µM): 0.1% | viability, T/C [27]: 0.12% | viability, T/C [28]: 0.13% | viability, T/C [29]: 0.15% | viability, T/C [30]: 0.1%

CC(CO)NC(=O)c1cc(-c2ccc(Cl)cc2)nn(-c2cnn(C)c2)c1=O (configuration not stated)
viability, T/C (compound 0.0316 µM): 119% and 99.1% | viability, T/C (compound 0.1 µM): 68.1% and 82.7% | viability, T/C (compound 0.316 µM): 102% and 165% | viability, T/C (compound 1 µM): 108% and 100% | viability, T/C (compound 3.16 µM): 79.3% and 88.4% | viability, T/C (compound 10 µM): 42.8% and 52.4% | IC50 (curve of compound): 7960 nM and > 10000 nM

CC(Nc1ccc2c(c1)OCCn1cc(N3C(=O)OCC3C(F)F)nc1-2)C(N)=O (configuration not stated)
viability, T/C (compound 0.0316 µM): 62.2% and 116% | viability, T/C (compound 0.1 µM): 92% and 69.5% | viability, T/C (compound 0.316 µM): 72.2% and 60.7% | viability, T/C (compound 1 µM): 51.6% and 59.1% | viability, T/C (compound 3.16 µM): 52.4% and 39.5% | viability, T/C (compound 10 µM): 35.8% and 37.7% | IC50 (curve of compound): 1420 nM and 834 nM
